Measured values reported in ChEMBL document CHEMBL5291721, “A preclinical secondary pharmacology resource illuminates target-adverse drug reaction associations of marketed drugs” (Nat Commun, 2023).
Each block holds one compound with its values, some of them ahead of it.

Tests used:
Androgen receptor = biological target: T1, Androgen receptor (Rattus norvegicus, UniProt P15207); assay type: functional
T1 sequence (P15207 whole entry): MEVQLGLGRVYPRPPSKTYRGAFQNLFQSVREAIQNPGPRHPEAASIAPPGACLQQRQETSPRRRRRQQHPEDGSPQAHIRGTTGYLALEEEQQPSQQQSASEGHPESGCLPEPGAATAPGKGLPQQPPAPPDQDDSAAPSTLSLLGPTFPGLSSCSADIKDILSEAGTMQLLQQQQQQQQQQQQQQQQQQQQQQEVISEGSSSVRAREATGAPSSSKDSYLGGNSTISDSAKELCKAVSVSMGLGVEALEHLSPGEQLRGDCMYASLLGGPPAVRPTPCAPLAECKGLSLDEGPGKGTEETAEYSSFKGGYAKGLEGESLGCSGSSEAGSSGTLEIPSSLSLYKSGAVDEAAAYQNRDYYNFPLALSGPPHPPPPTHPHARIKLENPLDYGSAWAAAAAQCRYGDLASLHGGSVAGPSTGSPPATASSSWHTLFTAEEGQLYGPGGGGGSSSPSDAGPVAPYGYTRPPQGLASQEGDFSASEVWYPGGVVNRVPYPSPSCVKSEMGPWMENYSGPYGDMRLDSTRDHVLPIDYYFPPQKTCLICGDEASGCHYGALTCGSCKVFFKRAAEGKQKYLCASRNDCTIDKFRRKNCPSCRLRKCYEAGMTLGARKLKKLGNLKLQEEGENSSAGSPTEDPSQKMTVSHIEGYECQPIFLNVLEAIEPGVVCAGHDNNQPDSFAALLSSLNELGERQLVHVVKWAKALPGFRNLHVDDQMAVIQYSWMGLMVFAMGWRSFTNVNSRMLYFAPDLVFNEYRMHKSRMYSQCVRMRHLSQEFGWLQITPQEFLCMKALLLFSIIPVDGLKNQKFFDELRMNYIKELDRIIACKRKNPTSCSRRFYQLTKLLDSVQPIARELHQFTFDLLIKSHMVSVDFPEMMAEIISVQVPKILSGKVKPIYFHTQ

D(1A) dopamine receptor = D(1A) dopamine receptor (Homo sapiens, UniProt P21728); assay type: functional, cell-based
Sequence of D(1A) dopamine receptor (P21728 whole entry): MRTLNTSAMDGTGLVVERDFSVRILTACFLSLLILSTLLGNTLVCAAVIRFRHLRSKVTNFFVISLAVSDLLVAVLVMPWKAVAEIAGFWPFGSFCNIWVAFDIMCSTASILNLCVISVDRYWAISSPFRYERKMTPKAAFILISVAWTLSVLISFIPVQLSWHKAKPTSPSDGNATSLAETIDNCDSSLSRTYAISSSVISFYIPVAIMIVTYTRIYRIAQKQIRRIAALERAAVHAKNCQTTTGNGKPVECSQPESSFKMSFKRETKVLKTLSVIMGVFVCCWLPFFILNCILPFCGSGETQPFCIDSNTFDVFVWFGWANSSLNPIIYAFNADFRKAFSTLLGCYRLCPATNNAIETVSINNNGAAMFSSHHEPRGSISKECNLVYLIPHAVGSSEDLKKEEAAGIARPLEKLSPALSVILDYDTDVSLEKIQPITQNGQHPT

Thromboxane A2 receptor [1] = biological target: T2, Thromboxane A2 receptor (Homo sapiens, UniProt P21731); assay type: functional
T2 sequence (P21731 whole entry): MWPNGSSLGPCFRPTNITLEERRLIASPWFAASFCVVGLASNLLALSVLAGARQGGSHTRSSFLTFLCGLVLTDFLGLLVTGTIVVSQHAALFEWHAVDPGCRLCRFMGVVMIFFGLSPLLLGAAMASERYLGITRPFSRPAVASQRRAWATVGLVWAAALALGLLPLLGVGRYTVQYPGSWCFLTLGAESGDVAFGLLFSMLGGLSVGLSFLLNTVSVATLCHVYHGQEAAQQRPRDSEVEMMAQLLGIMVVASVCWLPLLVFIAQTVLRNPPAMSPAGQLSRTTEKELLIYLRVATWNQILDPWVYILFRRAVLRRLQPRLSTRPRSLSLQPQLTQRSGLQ

Thromboxane A2 receptor [2] = biological target: T2, Thromboxane A2 receptor; assay type: functional, cell-based
[3] = biological target: Rod cGMP-specific 3',5'-cyclic phosphodiesterase subunit alpha (Homo sapiens, UniProt P16499); assay type: functional
Sequence of Rod cGMP-specific 3',5'-cyclic phosphodiesterase subunit alpha (P16499 whole entry): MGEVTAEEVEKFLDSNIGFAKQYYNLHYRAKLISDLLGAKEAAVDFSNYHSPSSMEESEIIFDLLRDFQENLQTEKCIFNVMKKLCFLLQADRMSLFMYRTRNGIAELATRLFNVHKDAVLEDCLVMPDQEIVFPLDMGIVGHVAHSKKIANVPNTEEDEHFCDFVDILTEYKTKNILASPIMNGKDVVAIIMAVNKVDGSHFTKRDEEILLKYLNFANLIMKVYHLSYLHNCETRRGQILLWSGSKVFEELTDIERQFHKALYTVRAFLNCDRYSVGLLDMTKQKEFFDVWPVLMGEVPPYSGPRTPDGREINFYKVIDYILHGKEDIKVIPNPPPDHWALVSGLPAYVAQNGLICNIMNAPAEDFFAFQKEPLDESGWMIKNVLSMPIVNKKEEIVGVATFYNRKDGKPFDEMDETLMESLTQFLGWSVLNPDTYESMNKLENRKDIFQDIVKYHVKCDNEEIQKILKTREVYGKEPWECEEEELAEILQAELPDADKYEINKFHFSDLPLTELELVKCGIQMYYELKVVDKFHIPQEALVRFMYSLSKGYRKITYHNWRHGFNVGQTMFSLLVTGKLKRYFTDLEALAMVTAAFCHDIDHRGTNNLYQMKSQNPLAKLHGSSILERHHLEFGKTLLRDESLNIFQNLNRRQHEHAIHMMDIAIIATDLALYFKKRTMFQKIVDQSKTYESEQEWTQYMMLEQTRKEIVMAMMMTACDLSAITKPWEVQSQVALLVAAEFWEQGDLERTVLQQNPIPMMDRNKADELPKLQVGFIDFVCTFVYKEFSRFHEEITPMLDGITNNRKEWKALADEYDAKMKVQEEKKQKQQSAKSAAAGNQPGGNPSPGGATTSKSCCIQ

[4] = biological target: Vascular endothelial growth factor receptor 2 (Homo sapiens, UniProt P35968); assay type: functional
Sequence of Vascular endothelial growth factor receptor 2 (P35968 whole entry): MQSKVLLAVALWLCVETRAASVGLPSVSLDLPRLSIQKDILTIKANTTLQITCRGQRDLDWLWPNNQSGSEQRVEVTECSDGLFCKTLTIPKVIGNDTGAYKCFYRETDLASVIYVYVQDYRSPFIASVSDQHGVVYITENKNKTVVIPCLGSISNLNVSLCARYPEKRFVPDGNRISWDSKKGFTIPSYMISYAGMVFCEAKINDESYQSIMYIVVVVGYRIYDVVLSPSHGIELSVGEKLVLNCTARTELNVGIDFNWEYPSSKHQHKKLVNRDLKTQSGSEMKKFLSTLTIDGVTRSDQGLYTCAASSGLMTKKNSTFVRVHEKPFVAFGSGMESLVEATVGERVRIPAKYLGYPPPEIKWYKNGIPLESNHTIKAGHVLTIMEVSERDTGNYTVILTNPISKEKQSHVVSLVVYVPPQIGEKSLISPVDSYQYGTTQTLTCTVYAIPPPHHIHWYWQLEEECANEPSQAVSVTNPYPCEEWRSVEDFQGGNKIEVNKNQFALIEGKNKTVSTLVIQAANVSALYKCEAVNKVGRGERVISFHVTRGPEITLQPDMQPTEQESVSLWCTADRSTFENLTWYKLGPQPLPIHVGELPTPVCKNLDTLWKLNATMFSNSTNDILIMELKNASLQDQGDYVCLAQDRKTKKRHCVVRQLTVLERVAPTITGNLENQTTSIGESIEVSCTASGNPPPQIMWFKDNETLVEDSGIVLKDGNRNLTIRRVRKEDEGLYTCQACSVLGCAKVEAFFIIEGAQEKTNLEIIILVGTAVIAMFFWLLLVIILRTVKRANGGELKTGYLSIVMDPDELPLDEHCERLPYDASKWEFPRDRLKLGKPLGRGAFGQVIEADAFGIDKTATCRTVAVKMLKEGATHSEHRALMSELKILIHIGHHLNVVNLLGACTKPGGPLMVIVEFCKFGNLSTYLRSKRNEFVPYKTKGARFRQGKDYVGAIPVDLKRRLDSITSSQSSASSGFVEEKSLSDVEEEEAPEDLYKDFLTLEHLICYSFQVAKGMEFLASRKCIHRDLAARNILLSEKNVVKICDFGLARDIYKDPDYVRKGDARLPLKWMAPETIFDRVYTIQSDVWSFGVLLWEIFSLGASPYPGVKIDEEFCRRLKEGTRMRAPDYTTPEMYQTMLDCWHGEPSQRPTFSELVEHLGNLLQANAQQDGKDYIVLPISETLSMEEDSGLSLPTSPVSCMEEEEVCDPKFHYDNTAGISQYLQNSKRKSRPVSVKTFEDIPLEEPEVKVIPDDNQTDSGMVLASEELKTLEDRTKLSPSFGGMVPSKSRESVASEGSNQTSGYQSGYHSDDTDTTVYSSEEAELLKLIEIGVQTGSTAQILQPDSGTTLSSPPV

[5] = biological target: Beta-1 adrenergic receptor (Homo sapiens, UniProt P08588); assay type: functional, cell-based
Sequence of Beta-1 adrenergic receptor (P08588 whole entry): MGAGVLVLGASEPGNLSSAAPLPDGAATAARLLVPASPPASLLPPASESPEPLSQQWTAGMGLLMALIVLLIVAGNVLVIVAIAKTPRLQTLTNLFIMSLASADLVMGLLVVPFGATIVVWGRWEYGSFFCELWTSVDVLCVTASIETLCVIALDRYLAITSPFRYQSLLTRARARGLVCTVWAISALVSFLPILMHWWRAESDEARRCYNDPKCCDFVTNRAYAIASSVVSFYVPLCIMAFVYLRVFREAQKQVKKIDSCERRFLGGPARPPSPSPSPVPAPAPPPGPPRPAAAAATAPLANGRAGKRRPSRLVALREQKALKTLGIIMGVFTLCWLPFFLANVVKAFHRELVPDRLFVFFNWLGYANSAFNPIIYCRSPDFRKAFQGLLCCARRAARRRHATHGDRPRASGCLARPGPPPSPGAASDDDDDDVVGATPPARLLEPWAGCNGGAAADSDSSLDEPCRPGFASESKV

[6] = biological target: T3, Peroxisome proliferator-activated receptor gamma (Homo sapiens, UniProt P37231); assay type: functional
T3 sequence (P37231 whole entry): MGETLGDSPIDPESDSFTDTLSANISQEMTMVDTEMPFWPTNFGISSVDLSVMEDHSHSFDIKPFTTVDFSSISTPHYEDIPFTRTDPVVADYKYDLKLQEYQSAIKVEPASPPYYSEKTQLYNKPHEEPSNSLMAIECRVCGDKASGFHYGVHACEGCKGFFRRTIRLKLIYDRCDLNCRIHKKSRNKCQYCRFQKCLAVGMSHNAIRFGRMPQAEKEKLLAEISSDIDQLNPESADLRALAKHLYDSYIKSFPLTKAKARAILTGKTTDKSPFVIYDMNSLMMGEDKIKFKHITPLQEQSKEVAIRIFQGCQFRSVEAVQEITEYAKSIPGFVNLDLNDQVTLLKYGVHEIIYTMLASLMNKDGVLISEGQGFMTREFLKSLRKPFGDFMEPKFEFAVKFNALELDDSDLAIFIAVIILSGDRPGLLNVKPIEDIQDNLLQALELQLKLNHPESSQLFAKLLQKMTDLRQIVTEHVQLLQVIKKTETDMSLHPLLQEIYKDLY

[7] = biological target: T3, Peroxisome proliferator-activated receptor gamma; assay type: functional; remark: listed apart in the source
[8] = biological target: T4, Muscarinic acetylcholine receptor M2 (Homo sapiens, UniProt P08172)
T4 sequence (P08172 whole entry): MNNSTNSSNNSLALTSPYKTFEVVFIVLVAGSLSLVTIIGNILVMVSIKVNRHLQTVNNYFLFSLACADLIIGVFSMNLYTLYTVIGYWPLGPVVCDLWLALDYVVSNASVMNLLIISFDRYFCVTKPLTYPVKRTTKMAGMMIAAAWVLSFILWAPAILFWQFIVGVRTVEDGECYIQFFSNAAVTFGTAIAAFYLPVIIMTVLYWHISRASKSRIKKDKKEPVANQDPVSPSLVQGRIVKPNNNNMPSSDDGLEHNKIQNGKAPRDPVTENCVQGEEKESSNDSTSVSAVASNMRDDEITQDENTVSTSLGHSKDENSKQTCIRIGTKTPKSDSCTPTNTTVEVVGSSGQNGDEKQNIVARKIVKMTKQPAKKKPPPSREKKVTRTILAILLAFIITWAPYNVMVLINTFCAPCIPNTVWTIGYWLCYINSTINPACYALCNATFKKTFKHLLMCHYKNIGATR

[9] = biological target: Gamma-aminobutyric acid type B receptor subunit 1 (Homo sapiens, UniProt Q9UBS5)
Sequence of Gamma-aminobutyric acid type B receptor subunit 1 (Q9UBS5 whole entry): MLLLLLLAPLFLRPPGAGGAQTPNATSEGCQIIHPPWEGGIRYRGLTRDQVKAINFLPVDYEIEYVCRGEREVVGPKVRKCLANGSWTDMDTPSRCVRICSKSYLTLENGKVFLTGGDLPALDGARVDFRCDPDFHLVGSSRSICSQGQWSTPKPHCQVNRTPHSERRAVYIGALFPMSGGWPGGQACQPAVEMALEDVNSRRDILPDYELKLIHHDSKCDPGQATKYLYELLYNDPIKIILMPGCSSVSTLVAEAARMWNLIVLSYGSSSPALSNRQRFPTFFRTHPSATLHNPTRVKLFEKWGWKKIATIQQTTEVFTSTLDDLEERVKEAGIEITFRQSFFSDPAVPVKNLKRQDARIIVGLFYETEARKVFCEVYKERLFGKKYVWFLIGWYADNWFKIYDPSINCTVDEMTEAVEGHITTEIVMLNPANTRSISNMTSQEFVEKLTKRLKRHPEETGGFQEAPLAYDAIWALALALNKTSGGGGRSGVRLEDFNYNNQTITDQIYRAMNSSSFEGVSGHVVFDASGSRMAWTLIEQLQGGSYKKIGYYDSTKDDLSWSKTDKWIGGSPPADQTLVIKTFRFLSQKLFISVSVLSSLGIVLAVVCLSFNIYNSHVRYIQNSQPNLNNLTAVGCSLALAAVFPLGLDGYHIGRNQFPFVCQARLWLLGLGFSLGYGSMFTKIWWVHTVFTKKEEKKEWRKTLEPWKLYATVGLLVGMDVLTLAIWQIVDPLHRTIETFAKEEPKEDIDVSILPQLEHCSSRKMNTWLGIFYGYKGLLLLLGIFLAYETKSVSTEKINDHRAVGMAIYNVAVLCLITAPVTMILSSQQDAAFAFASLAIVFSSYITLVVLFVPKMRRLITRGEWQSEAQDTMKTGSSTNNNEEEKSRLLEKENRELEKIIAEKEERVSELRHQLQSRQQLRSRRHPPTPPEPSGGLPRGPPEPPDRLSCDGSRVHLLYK

[10] = biological target: Sodium channel protein type 5 subunit alpha (Homo sapiens, UniProt Q14524); assay type: functional, cell-based
[11] = biological target: Hydroxycarboxylic acid receptor 2 (Homo sapiens, UniProt Q8TDS4)
Sequence of Hydroxycarboxylic acid receptor 2 (Q8TDS4 whole entry): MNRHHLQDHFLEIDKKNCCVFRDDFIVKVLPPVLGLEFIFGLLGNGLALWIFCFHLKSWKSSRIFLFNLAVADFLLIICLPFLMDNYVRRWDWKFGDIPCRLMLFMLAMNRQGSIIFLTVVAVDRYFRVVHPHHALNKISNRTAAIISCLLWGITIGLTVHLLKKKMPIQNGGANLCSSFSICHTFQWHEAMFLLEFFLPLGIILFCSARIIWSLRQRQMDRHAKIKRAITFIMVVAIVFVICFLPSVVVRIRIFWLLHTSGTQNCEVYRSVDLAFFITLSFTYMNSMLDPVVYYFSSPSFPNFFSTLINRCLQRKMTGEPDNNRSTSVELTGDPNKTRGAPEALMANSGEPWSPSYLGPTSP

[12] = biological target: Synaptic vesicular amine transporter (Rattus norvegicus, UniProt Q01827); assay type: functional
Sequence of Synaptic vesicular amine transporter (Q01827 whole entry): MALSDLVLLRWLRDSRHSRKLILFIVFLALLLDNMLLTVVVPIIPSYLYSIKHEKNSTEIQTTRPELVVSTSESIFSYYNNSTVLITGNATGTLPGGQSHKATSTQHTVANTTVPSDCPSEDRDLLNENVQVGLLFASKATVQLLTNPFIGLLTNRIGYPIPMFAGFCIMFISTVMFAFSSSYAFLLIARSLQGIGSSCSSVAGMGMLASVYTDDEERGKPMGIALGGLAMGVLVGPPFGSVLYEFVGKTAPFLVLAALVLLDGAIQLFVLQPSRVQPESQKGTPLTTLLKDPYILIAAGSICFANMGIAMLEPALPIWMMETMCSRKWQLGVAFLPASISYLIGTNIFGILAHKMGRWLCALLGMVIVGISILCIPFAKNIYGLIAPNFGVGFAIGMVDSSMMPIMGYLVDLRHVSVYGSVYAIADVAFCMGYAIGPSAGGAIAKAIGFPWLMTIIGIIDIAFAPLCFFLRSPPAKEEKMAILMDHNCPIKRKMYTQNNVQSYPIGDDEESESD
Further: assay procedure not described here.

AC50 (Androgen receptor): > 30 µM
SMILES: CCCC(=O)N1CCCN(c2nc(N)c3cc(OC)c(OC)cc3n2)CC1 [BUNAZOSIN]

AC50 (D(1A) dopamine receptor): > 30 µM
SMILES: C[N+](C)(C)CCOC(N)=O [CARBAMOYLCHOLINE]

SMILES: O=C(Nc1ccccc1)OCC(CN1CCCCC1)OC(=O)Nc1ccccc1 (configuration not stated) [DIPERODON]
AC50 (Thromboxane A2 receptor [1]): > 30 µM | AC50 (Thromboxane A2 receptor [2]): > 30 µM | AC50 [3]: > 10 µM | AC50 [4]: > 30 µM

AC50 [5]: > 30 µM
SMILES: CC(C(O)c1ccc(O)cc1)N1CCC(Cc2ccccc2)CC1 (configuration not stated) [IFENPRODIL]

AC50 [5]: > 30 µM
SMILES: CN(CCCN1c2ccccc2CCc2ccccc21)CC(=O)c1ccc(Cl)cc1 [LOFEPRAMINE]

SMILES: CC(=O)O[C@]1(C(C)=O)CC[C@H]2[C@@H]3C[C@H](C)C4=CC(=O)CC[C@]4(C)[C@H]3CC[C@@]21C [MEDROXYPROGESTERONE ACETATE]
AC50 [6]: > 30 µM | AC50 [7]: > 30 µM

SMILES: CC(=O)OC(C)C[N+](C)(C)C (configuration not stated) [METHACHOLINE]
AC50 [8]: 9.7 µM

AC50 [3]: > 10 µM
SMILES: CN(C)CCCN1c2ccccc2Sc2ccccc21 [PROMAZINE]

AC50 [9]: > 10 µM
SMILES: O=P(O)(O)C(O)(Cc1cccnc1)P(=O)(O)O [RISEDRONIC ACID]
AC50 [10]: > 30 µM

SMILES: O=C1CCC(N2C(=O)c3ccccc3C2=O)C(=O)N1 (configuration not stated) [THALIDOMIDE]
AC50 [9]: > 10 µM | AC50 [11]: > 10 µM

SMILES: COc1cc2c(cc1OC)[C@H]1C[C@@H](OC(=O)[C@@H](N)C(C)C)[C@H](CC(C)C)CN1CC2 [VALBENAZINE]
AC50 [12]: 0.46 µM
